pIC50: −log10 of the molar value.
Columns and labels:
HepG2 = test: Cytotoxicity against human HepG2 cells assessed as reduction in cell viability incubated for 48 hrs by MTT assay; type: functional, cell-based; conditions: HepG2, 48 h
ECa-109 cell line = test: Cytotoxicity against human ECa-109 cells assessed as reduction in cell viability incubated for 48 hrs by MTT assay; type: functional, cell-based; conditions: ECa-109, 48 h
SGC-7901 = test: Cytotoxicity against human SGC-7901 cells assessed as reduction in cell viability incubated for 48 hrs by MTT assay; type: functional, cell-based; conditions: SGC-7901, 48 h
HeLa = test: Cytotoxicity against human HeLa cells assessed as reduction in cell viability incubated for 48 hrs by MTT assay; type: functional, cell-based
L02 = test: Cytotoxicity against human HL7702 cells assessed as reduction in cell viability incubated for 48 hrs by MTT assay; type: ADME, cell-based; conditions: L02, 48 h

| SMILES | pIC50 (HepG2) | pIC50 (ECa-109 cell line) | pIC50 (SGC-7901) | pIC50 (HeLa) | pIC50 (L02) |
| --- | --- | --- | --- | --- | --- |
| CCCCCCCCn1nnc2c1C(C)(C)[C@@H]1CC[C@]3(C)[C@H](CC[C@@H]4[C@H]5[C@H]6OC[C@@]5(CCC6(C)C)CC[C@]43C)[C@@]1(C)C2 | < 4.10 | < 4.10 | < 4.10 | < 4.10 | < 4.10 |
| C[n+]1nn(Cc2ccccc2F)c2c1C[C@]1(C)[C@H]3CC[C@@H]4[C@H]5[C@H]6OC[C@@]5(CCC6(C)C)CC[C@@]4(C)[C@]3(C)CC[C@H]1C2(C)C | 5.52 | 5.51 | 5.59 | 5.62 | 5.77 |
| COc1cccc(Cn2nnc3c2C(C)(C)[C@@H]2CC[C@]4(C)[C@H](CC[C@@H]5[C@H]6[C@H]7OC[C@@]6(CCC7(C)C)CC[C@]54C)[C@@]2(C)C3)c1 | 4.90 | 4.98 | 4.92 | 4.95 | 4.98 |
| CC1(C)CC[C@]23CC[C@]4(C)[C@H](CC[C@@H]5[C@@]6(C)Cc7nnn(Cc8ccc(F)cc8F)c7C(C)(C)[C@@H]6CC[C@]54C)[C@H]2[C@H]1OC3 | 5.18 | 4.96 | 5.04 | 4.99 | 5.13 |
| COc1ccccc1CCn1nnc2c1C(C)(C)[C@@H]1CC[C@]3(C)[C@H](CC[C@@H]4[C@H]5[C@H]6OC[C@@]5(CCC6(C)C)CC[C@]43C)[C@@]1(C)C2 | 4.48 | 4.46 | 4.41 | 4.47 | 4.50 |
| CCCCCCn1nnc2c1C(C)(C)[C@@H]1CC[C@]3(C)[C@H](CC[C@@H]4[C@H]5[C@H]6OC[C@@]5(CCC6(C)C)CC[C@]43C)[C@@]1(C)C2 | < 4.10 | 4.43 | 4.39 | < 4.10 | 4.29 |
| C[n+]1nn(Cc2ccccc2)c2c1C[C@]1(C)[C@H]3CC[C@@H]4[C@H]5[C@H]6OC[C@@]5(CCC6(C)C)CC[C@@]4(C)[C@]3(C)CC[C@H]1C2(C)C | 5.54 | 5.48 | 5.55 | 5.52 | 5.70 |
| C[n+]1nn(Cc2cccc(F)c2)c2c1C[C@]1(C)[C@H]3CC[C@@H]4[C@H]5[C@H]6OC[C@@]5(CCC6(C)C)CC[C@@]4(C)[C@]3(C)CC[C@H]1C2(C)C | 5.65 | 5.52 | 5.52 | 5.56 | 5.85 |
| COc1cc(Cn2nnc3c2C(C)(C)[C@@H]2CC[C@]4(C)[C@H](CC[C@@H]5[C@H]6[C@H]7OC[C@@]6(CCC7(C)C)CC[C@]54C)[C@@]2(C)C3)cc(OC)c1OC | 4.92 | 5.20 | 4.97 | 5.04 | 5.18 |
| CC1(C)CC[C@]23CC[C@]4(C)[C@H](CC[C@@H]5[C@@]6(C)Cc7nnn(Cc8c(F)cccc8Cl)c7C(C)(C)[C@@H]6CC[C@]54C)[C@H]2[C@H]1OC3 | 4.61 | 4.57 | 4.58 | 4.63 | 4.71 |
| C[n+]1nn(CC(c2ccccc2)c2ccccc2)c2c1C[C@]1(C)[C@H]3CC[C@@H]4[C@H]5[C@H]6OC[C@@]5(CCC6(C)C)CC[C@@]4(C)[C@]3(C)CC[C@H]1C2(C)C | 5.53 | 5.64 | 5.66 | 5.57 | 5.79 |
| CC1(C)CC[C@]23CC[C@]4(C)[C@H](CC[C@@H]5[C@@]6(C)Cc7nnn(Cc8ccc(Cl)c(Cl)c8)c7C(C)(C)[C@@H]6CC[C@]54C)[C@H]2[C@H]1OC3 | 4.27 | 4.36 | 4.35 | 4.49 | 4.45 |
| CCCCCCCCn1n[n+](C)c2c1C(C)(C)[C@@H]1CC[C@]3(C)[C@H](CC[C@@H]4[C@H]5[C@H]6OC[C@@]5(CCC6(C)C)CC[C@]43C)[C@@]1(C)C2 | 5.70 | 5.52 | 5.66 | 5.59 | 5.87 |
| CC1(C)CC[C@]23CC[C@]4(C)[C@H](CC[C@@H]5[C@@]6(C)Cc7nnn(Cc8ccccc8Cl)c7C(C)(C)[C@@H]6CC[C@]54C)[C@H]2[C@H]1OC3 | 4.25 | 4.23 | 4.30 | 4.38 | 4.39 |
| Cc1ccc(Cn2nnc3c2C(C)(C)[C@@H]2CC[C@]4(C)[C@H](CC[C@@H]5[C@H]6[C@H]7OC[C@@]6(CCC7(C)C)CC[C@]54C)[C@@]2(C)C3)cc1 | 4.58 | 4.46 | 4.69 | 4.49 | 4.64 |
